# Patent US8013047B2, “Oligo- and poly-carbonates terminated with silicon containing groups as surface modifiers” (priority 2005, dated 2011)
# Tests used:
# [1] = Contact angle of polycarbonate extrusion sheets (sessile drop, water); assay type: physicochemical; conditions: 5% Tinuvin 1577 alone in polycarbonate extrusion sheet
# Experimental: (§1) A polycarbonate powder [Makrolon 3108 FBL (RTM) from Bayer] is dried in a vacuum oven for eight hours at 120° C. Appropriate amounts of each compound of the formula I is added to the dried polycarbonate powder to obtain formulations containing up to 10% by weight of the compound of the formula I. The formulations are mixed in a Grindo Mix GM 200 and compounded to pellets in a twin-screw extruder (Haake DS16-L/D25 from Thermo Electron Corporation) and further extruded to sheets with a width of 110 mm and thickness of 0.2 mm using a single-screw extruder equipped with a flat die (Collin CR-136/350). The processing temperature is around 280° C. All produced sheets have a transparent visual appearance.
# The surface properties were evaluated by measuring the contact angle of the polycarbonate sheets described in Example 16 with a Dataphysics OCA 30 contact angle device, using the sessile drop method and water as measuring liquid.
# [2] = test system: Staphylococcus aureus ATCC 6538; assay: Adhesion of microbes onto polycarbonate extrusion sheets (microtiterplate immunological assay); assay type: cell-based; conditions: 5% Tinuvin 1577 alone in polycarbonate sheet; residual adhesion relative to control = 100%; 60 min incubation
# Experimental: as §1
# In order to measure the reduced adhesion of microbes onto polymer surfaces the following testing procedure is applied:
# The test system is microtiterplate based and is conducted according to the method described in Nature Medicine Vol. 6, No. 8, 1053-1056. Samples equipped with active compounds and untreated control samples are prepared to obtain a same sample size of max. 7×4 mm. […] The microbial cells adhering to the pieces are detected in an immunological assay using specific antibodies against the test strain, which are then detected […]. […]
# [3] = Contact angle of extrusion tapes, compounds as bulk material or additive (sessile drop, water); assay type: physicochemical; conditions: 5% Tinuvin 1577 in 95% Makrolon 3108 FBL, extrusion tape
# Experimental: Appropriate amounts of each compound of the formula I are dried in a vacuum oven for eight hours at 120° C. They are extruded in a twin-screw extruder (MiniLab extruder from Thermo Electron Corporation) equipped with a flat die. In this way, tapes are produced with a width of 5 mm and a thickness of around 0.5 mm. The processing temperature is around 280° C. All produced tapes have a transparent visual appearance. The contact angle of the produced tapes are measured with a Dataphysics OCA 30 contact angle device, using the sessile drop method and water as measuring liquid.
smiles,measurement,setting,value
CCCCCCOc1ccc(-c2nc(-c3ccccc3)nc(-c3ccccc3)n2)c(O)c1 [Tinuvin 1577],Contact angle (°),[1],86 °
same,Adhesion of Staphylococcus aureus ATCC 6538 on polycarbonate in %,[2],104%
same,Contact angle (°),[3],86 °
